For nine compounds, AC50 results are on record in ChEMBL document CHEMBL5291721, “A preclinical secondary pharmacology resource illuminates target-adverse drug reaction associations of marketed drugs” (Nat Commun, 2023).

Each structure is given as a SMILES string. Some results are limits rather than exact numbers.

In experiment [1] the target is T1, Thromboxane A2 receptor (Homo sapiens, UniProt P21731).
T1 sequence (P21731 whole entry): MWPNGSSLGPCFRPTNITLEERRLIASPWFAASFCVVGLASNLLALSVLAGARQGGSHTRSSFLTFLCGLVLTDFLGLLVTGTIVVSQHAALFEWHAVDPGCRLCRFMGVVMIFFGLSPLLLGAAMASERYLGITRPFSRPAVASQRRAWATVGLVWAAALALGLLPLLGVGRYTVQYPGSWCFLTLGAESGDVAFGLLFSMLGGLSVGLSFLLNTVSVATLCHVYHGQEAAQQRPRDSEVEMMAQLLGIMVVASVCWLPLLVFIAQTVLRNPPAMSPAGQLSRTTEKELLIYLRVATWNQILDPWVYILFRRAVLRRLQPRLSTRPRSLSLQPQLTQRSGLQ
The format is functional, cell-based.

For experiment [2], the target named is 5-hydroxytryptamine receptor 2B (Homo sapiens, UniProt P41595). In kind it is functional, cell-based.
The target of experiment [3] is T2, 5-hydroxytryptamine receptor 1A (Homo sapiens, UniProt P08908).
T2 sequence (P08908 whole entry): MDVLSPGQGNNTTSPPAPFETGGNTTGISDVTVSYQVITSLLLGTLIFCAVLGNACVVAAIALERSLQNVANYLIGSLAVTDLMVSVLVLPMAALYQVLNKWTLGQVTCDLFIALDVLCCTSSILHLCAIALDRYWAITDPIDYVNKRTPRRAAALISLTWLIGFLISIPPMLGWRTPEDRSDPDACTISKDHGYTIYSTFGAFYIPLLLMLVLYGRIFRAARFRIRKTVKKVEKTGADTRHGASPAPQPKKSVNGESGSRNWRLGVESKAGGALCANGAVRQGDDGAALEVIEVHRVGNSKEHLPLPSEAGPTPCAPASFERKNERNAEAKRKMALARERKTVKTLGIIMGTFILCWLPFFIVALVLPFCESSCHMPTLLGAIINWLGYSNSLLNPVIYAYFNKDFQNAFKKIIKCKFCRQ

The target in experiment [4] is T3, Amine oxidase [flavin-containing] A (Homo sapiens, UniProt P21397).
T3 sequence (P21397 whole entry): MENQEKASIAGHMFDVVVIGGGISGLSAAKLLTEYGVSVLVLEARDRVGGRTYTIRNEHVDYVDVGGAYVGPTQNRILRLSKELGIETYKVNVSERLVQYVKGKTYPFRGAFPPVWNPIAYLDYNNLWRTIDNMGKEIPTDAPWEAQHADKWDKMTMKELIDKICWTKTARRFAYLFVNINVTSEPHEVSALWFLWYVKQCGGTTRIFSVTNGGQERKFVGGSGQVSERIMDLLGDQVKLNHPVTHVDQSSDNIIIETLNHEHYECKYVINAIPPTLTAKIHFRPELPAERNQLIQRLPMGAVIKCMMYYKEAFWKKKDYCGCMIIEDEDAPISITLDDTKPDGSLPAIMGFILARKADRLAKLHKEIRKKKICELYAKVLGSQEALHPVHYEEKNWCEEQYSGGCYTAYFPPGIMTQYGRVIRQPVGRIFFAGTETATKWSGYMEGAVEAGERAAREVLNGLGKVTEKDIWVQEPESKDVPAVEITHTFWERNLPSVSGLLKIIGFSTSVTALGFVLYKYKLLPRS
The format is functional.

For experiment [5], the target named is T4, Prostaglandin G/H synthase 1 (Homo sapiens, UniProt P23219). The format is functional.
Experiment [6] concerns the target T4, Prostaglandin G/H synthase 1. In kind it is functional. This is another data set of the same source.
For experiment [7], the target named is Prothrombin (Homo sapiens, UniProt P00734). In kind it is functional.
Experiment [8] addresses Acetylcholinesterase (Homo sapiens, UniProt P22303). The format is functional.
In experiment [9] the target is Sodium-dependent noradrenaline transporter (Homo sapiens, UniProt P23975).
Experiment [10] deals with cGMP-inhibited 3',5'-cyclic phosphodiesterase 3A (Homo sapiens, UniProt Q14432). The format is functional.
Experiment [11] has as its target T5, Progesterone receptor (Homo sapiens, UniProt P06401).
T5 sequence (P06401 whole entry): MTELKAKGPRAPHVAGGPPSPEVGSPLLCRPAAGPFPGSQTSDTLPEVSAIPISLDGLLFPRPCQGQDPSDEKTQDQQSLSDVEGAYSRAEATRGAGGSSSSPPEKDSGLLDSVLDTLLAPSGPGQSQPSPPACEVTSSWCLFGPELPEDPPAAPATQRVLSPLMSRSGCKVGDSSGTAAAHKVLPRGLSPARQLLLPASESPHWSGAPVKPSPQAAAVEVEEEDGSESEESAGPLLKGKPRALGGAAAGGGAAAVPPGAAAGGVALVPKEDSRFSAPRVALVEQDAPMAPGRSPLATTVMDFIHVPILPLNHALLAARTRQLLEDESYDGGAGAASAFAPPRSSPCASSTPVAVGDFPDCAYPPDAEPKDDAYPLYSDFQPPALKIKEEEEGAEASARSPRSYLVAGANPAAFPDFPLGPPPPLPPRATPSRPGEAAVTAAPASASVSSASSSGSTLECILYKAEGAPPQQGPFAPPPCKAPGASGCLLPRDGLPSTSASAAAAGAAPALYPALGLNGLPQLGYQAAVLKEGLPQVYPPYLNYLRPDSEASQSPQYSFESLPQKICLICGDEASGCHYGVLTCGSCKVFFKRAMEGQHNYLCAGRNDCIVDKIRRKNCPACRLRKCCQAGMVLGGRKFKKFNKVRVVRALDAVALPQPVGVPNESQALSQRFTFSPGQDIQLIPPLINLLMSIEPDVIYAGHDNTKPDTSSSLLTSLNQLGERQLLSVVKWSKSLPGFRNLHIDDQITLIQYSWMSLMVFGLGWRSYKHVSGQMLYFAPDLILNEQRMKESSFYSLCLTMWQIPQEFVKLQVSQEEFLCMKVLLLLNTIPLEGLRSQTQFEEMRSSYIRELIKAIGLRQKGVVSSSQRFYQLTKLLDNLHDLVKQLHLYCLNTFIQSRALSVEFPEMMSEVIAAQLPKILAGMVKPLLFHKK

For experiment [12], the target named is Sodium-dependent dopamine transporter (Homo sapiens, UniProt Q01959).
For experiment [13], the target named is T1, Thromboxane A2 receptor. In kind it is functional, cell-based. This is another data set of the same source.
Experiment [14] concerns the target D(1A) dopamine receptor (Homo sapiens, UniProt P21728).
Further: assay procedure not described here.

Sequence of Sodium-dependent dopamine transporter (Q01959 whole entry): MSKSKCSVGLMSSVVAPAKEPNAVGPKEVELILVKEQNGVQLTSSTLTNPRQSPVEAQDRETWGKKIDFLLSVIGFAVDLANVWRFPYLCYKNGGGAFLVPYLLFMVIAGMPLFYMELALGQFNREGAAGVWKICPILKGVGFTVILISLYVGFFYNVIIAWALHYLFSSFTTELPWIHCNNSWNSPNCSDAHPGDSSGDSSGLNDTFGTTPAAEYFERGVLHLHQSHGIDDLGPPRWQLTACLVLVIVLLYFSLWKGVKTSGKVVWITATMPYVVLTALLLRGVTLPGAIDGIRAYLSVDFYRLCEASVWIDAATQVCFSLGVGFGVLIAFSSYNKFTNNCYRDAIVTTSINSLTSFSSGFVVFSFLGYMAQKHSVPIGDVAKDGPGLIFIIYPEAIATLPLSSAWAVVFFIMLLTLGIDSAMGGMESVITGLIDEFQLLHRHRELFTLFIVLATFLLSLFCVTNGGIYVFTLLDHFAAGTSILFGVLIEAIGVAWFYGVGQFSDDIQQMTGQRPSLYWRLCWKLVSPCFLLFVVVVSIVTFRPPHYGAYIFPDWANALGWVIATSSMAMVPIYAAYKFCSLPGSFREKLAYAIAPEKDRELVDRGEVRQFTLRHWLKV
T4 sequence (P23219 whole entry): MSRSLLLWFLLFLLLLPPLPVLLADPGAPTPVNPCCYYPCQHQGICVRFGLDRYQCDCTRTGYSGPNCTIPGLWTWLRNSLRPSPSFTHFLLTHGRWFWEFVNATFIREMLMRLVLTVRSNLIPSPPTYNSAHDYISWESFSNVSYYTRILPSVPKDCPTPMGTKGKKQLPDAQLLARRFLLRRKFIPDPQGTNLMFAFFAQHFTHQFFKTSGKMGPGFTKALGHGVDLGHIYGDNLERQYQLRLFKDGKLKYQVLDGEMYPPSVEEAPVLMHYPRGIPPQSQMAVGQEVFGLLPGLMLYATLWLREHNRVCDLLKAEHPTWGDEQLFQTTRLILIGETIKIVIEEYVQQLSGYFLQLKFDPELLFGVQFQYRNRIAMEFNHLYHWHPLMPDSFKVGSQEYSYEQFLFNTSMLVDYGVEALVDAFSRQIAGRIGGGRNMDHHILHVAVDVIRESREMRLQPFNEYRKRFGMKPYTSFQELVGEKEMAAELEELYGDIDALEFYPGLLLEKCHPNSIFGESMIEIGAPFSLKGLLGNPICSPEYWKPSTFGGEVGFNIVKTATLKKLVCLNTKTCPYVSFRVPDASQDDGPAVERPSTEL
Sequence of 5-hydroxytryptamine receptor 2B (P41595 whole entry): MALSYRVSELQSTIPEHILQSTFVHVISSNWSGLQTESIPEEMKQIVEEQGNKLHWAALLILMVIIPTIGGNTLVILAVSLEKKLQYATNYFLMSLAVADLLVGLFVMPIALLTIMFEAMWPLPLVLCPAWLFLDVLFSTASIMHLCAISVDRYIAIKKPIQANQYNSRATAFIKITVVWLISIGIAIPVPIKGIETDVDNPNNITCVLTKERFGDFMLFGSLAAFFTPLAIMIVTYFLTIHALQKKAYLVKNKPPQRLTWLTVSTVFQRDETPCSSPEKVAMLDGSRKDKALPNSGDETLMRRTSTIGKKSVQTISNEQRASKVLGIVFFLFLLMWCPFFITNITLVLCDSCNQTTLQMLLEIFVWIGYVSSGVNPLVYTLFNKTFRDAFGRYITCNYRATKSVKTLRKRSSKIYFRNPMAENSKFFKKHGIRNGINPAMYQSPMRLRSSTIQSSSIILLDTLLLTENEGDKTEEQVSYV
Sequence of Acetylcholinesterase (P22303 whole entry): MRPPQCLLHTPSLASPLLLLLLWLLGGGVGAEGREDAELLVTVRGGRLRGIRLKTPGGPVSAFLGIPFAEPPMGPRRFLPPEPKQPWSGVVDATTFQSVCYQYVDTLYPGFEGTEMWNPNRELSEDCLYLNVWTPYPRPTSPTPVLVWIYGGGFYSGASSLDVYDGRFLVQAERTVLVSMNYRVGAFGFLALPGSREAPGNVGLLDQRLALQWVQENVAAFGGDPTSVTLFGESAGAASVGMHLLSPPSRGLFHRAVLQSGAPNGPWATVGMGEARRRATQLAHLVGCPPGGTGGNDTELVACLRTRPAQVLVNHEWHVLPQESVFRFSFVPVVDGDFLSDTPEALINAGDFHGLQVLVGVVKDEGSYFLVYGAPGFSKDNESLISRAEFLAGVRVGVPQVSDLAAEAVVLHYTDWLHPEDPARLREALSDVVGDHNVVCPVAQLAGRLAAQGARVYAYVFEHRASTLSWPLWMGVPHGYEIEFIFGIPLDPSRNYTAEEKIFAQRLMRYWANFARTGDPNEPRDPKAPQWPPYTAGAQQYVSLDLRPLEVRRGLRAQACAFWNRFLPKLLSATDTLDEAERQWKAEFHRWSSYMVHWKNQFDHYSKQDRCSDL
Sequence of Sodium-dependent noradrenaline transporter (P23975 whole entry): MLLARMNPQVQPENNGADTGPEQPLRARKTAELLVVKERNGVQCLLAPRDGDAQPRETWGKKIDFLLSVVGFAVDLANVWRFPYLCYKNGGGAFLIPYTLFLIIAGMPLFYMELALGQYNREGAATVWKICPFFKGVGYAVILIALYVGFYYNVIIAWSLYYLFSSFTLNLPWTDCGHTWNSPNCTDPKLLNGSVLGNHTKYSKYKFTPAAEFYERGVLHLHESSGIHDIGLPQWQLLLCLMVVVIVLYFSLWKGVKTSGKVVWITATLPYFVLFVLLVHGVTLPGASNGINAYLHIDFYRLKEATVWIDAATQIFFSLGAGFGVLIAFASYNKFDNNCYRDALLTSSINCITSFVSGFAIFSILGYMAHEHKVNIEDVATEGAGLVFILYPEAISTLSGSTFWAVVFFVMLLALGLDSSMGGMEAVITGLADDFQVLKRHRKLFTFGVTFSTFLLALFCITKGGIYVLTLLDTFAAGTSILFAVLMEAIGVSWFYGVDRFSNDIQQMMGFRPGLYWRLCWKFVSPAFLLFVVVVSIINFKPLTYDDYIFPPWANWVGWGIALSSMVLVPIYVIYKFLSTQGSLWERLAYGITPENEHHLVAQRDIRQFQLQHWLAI
Sequence of cGMP-inhibited 3',5'-cyclic phosphodiesterase 3A (Q14432 whole entry): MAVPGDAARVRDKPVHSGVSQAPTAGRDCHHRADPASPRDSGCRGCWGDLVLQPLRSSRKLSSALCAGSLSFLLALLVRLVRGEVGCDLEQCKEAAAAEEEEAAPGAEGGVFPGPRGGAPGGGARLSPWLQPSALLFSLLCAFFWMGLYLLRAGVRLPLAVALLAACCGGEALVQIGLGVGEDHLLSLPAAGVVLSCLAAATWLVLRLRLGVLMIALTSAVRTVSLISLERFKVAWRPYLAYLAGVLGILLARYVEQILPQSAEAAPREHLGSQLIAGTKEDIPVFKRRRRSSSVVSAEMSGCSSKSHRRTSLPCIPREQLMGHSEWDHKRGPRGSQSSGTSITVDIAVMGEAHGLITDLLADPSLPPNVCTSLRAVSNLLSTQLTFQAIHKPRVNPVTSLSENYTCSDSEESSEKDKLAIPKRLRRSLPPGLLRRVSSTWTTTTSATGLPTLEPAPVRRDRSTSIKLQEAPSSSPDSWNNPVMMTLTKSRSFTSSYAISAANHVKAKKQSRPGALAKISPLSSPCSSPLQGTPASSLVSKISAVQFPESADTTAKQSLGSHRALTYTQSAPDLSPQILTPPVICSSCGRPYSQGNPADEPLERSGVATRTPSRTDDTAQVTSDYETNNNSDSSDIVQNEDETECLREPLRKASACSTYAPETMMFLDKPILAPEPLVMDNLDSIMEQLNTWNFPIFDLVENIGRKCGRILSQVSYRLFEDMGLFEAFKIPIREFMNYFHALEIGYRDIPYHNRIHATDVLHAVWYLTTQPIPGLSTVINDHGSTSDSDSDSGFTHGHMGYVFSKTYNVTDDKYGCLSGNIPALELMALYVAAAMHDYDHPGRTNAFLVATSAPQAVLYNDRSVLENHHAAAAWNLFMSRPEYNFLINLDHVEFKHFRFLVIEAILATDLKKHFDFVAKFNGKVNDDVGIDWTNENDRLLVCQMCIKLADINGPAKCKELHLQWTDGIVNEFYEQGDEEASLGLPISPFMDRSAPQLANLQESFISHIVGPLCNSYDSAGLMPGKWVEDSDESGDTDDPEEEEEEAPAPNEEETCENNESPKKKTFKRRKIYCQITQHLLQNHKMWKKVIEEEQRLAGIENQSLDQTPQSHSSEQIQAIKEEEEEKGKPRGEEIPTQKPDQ
Sequence of D(1A) dopamine receptor (P21728 whole entry): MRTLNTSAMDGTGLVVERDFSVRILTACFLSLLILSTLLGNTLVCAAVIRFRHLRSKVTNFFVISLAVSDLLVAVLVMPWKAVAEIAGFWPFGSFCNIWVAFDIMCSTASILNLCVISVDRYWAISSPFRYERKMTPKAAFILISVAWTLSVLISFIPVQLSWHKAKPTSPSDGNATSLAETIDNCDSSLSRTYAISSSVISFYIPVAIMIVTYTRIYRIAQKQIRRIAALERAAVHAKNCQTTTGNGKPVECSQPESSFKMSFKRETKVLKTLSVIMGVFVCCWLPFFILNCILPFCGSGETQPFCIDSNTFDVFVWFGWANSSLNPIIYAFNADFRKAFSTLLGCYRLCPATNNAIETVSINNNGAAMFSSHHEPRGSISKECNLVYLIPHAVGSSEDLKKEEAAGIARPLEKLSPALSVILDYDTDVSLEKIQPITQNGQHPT

For `O=C(OOC(=O)c1ccccc1)c1ccccc1` [BENZOYL PEROXIDE], the AC50 in experiment [1], in [2], in experiment [3], in experiment [4], in experiment [5] and in [6] was above 30 µM throughout. Moreover, the AC50 in [7] is 9.02 µM; in experiment [8], above 30 µM; in experiment [9] it was above 30 µM; in [10], above 30 µM; in experiment [11], above 30 µM; in [12], above 30 µM. Further, the AC50 in experiment [13] and in [14] was above 30 µM each time.
As for `CC(C)(C)NCC(O)COc1ccccc1C#N` (stereo unspecified) [BUNITROLOL], the AC50 in experiment [1] was above 30 µM; in [2], above 30 µM; in [3] it was 0.0086 µM; in experiment [4], 10.4 µM; in experiment [5], above 30 µM; in experiment [6], above 30 µM. The half-maximal activity concentration (AC50) in experiment [7], in [8], in [9], in experiment [10], in experiment [11] and in experiment [12] was above 30 µM in each case. The AC50 in experiment [13] and in [14] was above 30 µM in each case.
For `CC1(C)C[C@@H]1C(=O)N/C(=C\CCCCSC[C@H](N)C(=O)O)C(=O)O` [CILASTATIN], the AC50 in experiment [1], in experiment [2], in [3], in experiment [4], in [5] and in experiment [6] was above 30 µM throughout. The AC50 in experiment [7], in experiment [8], in experiment [9], in [10], in experiment [11] and in experiment [12] was above 30 µM each time. Moreover, the AC50 in [13] and in experiment [14] was above 30 µM throughout.
As to `COc1c(OCCCN2CCOCC2)ccc2c1N=C(NC(=O)c1cnc(N)nc1)N1CCN=C21` [COPANLISIB], the AC50 in [1], in experiment [2], in experiment [3], in experiment [4], in experiment [5] and in experiment [6] was above 30 µM each time. The AC50 in [7], in [8], in experiment [9], in [10], in experiment [11] and in experiment [12] was above 30 µM each time. Moreover, the AC50 in [13] and in experiment [14] was above 30 µM in each case.
Turning to `COc1cccc2c1C(=O)c1c(O)c3c(c(O)c1C2=O)C[C@@](O)(C(=O)CO)C[C@@H]3O[C@H]1C[C@H](N)[C@H](O)[C@H](C)O1` [DOXORUBICIN], the AC50 in [1] was above 3 µM; in experiment [2], above 30 µM; in experiment [3] it was above 30 µM; in experiment [4], above 30 µM; in experiment [5], above 30 µM; in experiment [6], 15.5 µM. Also, the AC50 in experiment [7], in experiment [8], in [9], in experiment [10], in [11] and in experiment [12] was above 30 µM throughout. The AC50 was 24.7 µM in [13] and above 30 µM in experiment [14].
Regarding `COc1cccc2c1C(=O)c1c(O)c3c(c(O)c1C2=O)C[C@@](O)(C(=O)CO)C[C@@H]3O[C@H]1C[C@H](N)[C@@H](O)[C@H](C)O1` [EPIRUBICIN], the AC50 was above 30 µM in experiment [1]; above 30 µM in [2]; above 30 µM in [3]; above 30 µM in experiment [4]; above 30 µM in experiment [5]; 2.44 µM in experiment [6]. Besides, the AC50 was above 30 µM in experiment [7]; 17 µM in experiment [8]; above 30 µM in experiment [9]; above 30 µM in experiment [10]; above 30 µM in experiment [11]; above 30 µM in experiment [12]. The AC50 in experiment [13] was 8.17 µM; in experiment [14], above 30 µM.
On to `CSCC[C@H](N)C(=O)O` [METHIONINE], for which the AC50 in experiment [1], in experiment [2], in experiment [3], in experiment [4], in experiment [5] and in [6] was above 30 µM throughout. Moreover, the AC50 in experiment [7], in [8], in [9], in experiment [10], in experiment [11] and in experiment [12] was above 30 µM throughout. Also, the AC50 in experiment [13] and in experiment [14] was above 30 µM each time.
Regarding `CC(=O)OCC(=O)[C@@]1(O)CC[C@H]2[C@@H]3C[C@H](C)C4=CC(=O)C=C[C@]4(C)[C@H]3[C@@H](O)C[C@@]21C` [METHYLPREDNISOLONE ACETATE], the AC50 in [1], in experiment [2], in [3], in experiment [4], in experiment [5] and in experiment [6] was above 30 µM in each case. Also, the AC50 is 11.9 µM in experiment [7]; above 30 µM in experiment [8]; above 30 µM in [9]; above 30 µM in experiment [10]; 3.03 µM in [11]; above 30 µM in experiment [12]. For the same compound, the AC50 in experiment [13] and in experiment [14] was above 30 µM throughout.
Take `COc1ccc(C(=O)c2ccccc2)c(O)c1` [OXYBENZONE]: the AC50 in [1] was above 10 µM; in experiment [2], above 30 µM; in experiment [3], above 30 µM; in experiment [4] it was above 30 µM; in experiment [5], above 30 µM; in experiment [6], above 30 µM. The AC50 in [7] was above 30 µM; in experiment [8], above 30 µM; in [9] it was 11.6 µM; in experiment [10], above 30 µM; in experiment [11] it was 25.7 µM; in [12] it was 16.5 µM. Also, the AC50 in [13] and in [14] was above 30 µM throughout.

The term AC50 denotes the concentration giving half of the maximal activity seen.
